Results taken from the supplement of paper PMC10949913.

Key:
CU-ACC1 = assay: area under concentration-response curve (viability) (AUC (a.u.)); higher = less active; conditions: 48 h
Outline: (§1)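 Library compounds were tested at 11 concentrations against three adrenocortical carcinoma cell lines in 1,536-well plates. CellTiter-Glo luminescence was read after 48 h and normalised per plate to vehicle and empty-well controls. Only inhibitory or non-responding curve classes from fitted concentration-response curves contributed AC50 and area under the curve.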

CU-ACC2 = assay: as above; conditions: 48 h
Outline: as §1

| Compound | area under concentration-response curve (CU-ACC1) | area under concentration-response curve (CU-ACC2) |
| --- | --- | --- |
| NC/1=N/C(=O)N(/C=C1)[C@@H]2O[C@H](CO)[C@@H](O)C2(F)F | 497 | 541 |
| C=CC(=O)N1C[C@H](Nc2ncnc3[nH]ccc23)CC[C@@H]1C | 587 | 622 |
| Nc1nnc(-c2cccc(Cl)c2Cl)c(N)n1 | 563 | 630 |
| C[C@H](Nc1nc(N[C@H](C)C(F)(F)F)nc(-c2cccc(Cl)n2)n1)C(F)(F)F | 547 | 606 |
| CC[C@@]1([C@@H]2O[C@@H]([C@H]3O[C@@](O)(CO)[C@H](C)C[C@@H]3C)C[C@@H]2C)CC[C@H]([C@]2(C)CC[C@]3(C[C@H](O)[C@@H](C)[C@@H]([C@@H](C)[C@@H](OC)[C@H](C)C(=O)[O-])O3)O2)O1 | 427 | 410 |
| COc1ccc2[nH]c([S+]([O-])Cc3ncc(C)c(OC)c3C)nc2n1 (centres undefined) | 542 | 637 |
| O=C(c1ccccc1)c1ccc2n1CCC2C(=O)O (centres undefined) | 448 | 529 |
| CC(=O)OCC(=O)[C@@]1(O)CC[C@H]2[C@@H]3CCC/4=C/C(=O)CC[C@]4(C)[C@H]3C(=O)C[C@]12C | 531 | 617 |
| COCCCOc1cc(C[C@@H](C[C@H](N)[C@@H](O)C[C@H](C(=O)NCC(C)(C)C(N)=O)C(C)C)C(C)C)ccc1OC | 564 | 648 |
| CCOCc1nc2c(N)nc3ccccc3c2n1CC(C)(C)O | 510 | 562 |
| CC(C)=CC[C@@H](O)C/1=C/C(=O)C2=C(O)C=CC(=C2C1=O)O | 568 | 603 |
| COC1=CC2=C(OC\C(=C2\C3=CC=C(F)C=C3)CN4CCCC4)C=C1 | 500 | 560 |
| Clc1ccc(COC(Cn2ccnc2)c2ccc(Cl)cc2Cl)c(Cl)c1 (centres undefined) | 265 | 308 |
| CCc1nc(-c2cccc(C)c2)c(-c2ccnc(NC(=O)c3ccccc3)c2)s1 | 490 | 574 |
| C=CC(=O)N[C@H]1CN(c2nc(Nc3cn(C)nc3OC)c3ncn(C)c3n2)C[C@@H]1F | 401 | 422 |
| CN1C(=O)[C@@H](NC(=O)c2cc(Cc3ccccc3)on2)COc2ccccc21 | 361 | 325 |
| COc1c(C)cc(NC(=O)c2nn(Cc3ccc(F)cc3)c3c2CN(C(=O)c2ccc[nH]2)C[C@]3(C)C(N)=O)cc1C | 567 | 646 |
| CC/C(=C(/c1ccc(/C=C/C(=O)O)cc1)c1ccc2[nH]ncc2c1)c1ccc(F)cc1Cl | 501 | 508 |
| COC1=C(CN(C)C)C=C(OC)C(=C1)C/2=C/N(C)C(=O)C3=C2C=CN=C3 | 516 | 597 |
| CC[C@H](C)C(=O)O[C@H]1C[C@H](O)\C=C2\C=C/[C@H](C)[C@H](CC[C@@H](O)C[C@@H](O)CC(O)=O)[C@@H]12 | 544 | 576 |
| CC1=C(C=CC=C1)N2\C(=N/C3=C(C(=CC=C3)C)C2=O)C[N]4N=CC5=C4N=CN=C5N | 583 | 614 |

| Compound | area under concentration-response curve (CU-ACC1) | area under concentration-response curve (CU-ACC2) |
| --- | --- | --- |
| C[C@]12CC[C@@H]3c4ccc(O)cc4CC[C@H]3[C@@H]1C[C@@H](O)[C@@H]2O | 388 | 398 |
| C[C@H]1CN(C[C@@H](C)O1)CC(=O)NC2=CC=C3SC4=C(CC3=C2)C=CC=C4\C5=C\C(=O)\C=C(/O5)N6CCOCC6 | 439 | 428 |
| CNC(=O)c1ccccc1Nc1nc(Nc2ccc3c(c2OC)CCC[C@@H](N2CCN(CCO)CC2)C3)ncc1Cl | 548 | 644 |
| CCCCC[C@H](O)/C=C/[C@H]1[C@H](O)CC(=O)[C@@H]1CCCCCCC(=O)O | 402 | 612 |
| Cl.NC(CO)C(=O)NNCc1ccc(O)c(O)c1O (centres undefined) | 562 | 627 |
| Cc1cccc(N(C)C(=S)Oc2ccc3ccccc3c2)c1 | 428 | 497 |
| CCCCCCOC(=O)/N=C(/N)c1ccc(NCc2nc3cc(C(=O)N(CCC(=O)OCC)c4ccccn4)ccc3n2C)cc1 | 523 | 594 |
| CC1(CN2CCC(n3c(=O)[nH]c4ccccc43)CC2)OCc2ccccc2-n2cccc21 (centres undefined) | 494 | 556 |
| CC(C)c1ccc2oc3nc(N)c(C(=O)O)cc3c(=O)c2c1 | 543 | 606 |
| C\C1=C\C(=O)OC2=C1C=CC(=C2)O | 473 | 552 |
| CCO[C@@H]1OC(=O)C[C@@H]1NC(=O)[C@@H]1CCCN1C(=O)[C@@H](NC(=O)c1ccc(N)c(Cl)c1)C(C)(C)C | 493 | 518 |
| CNNCc1ccc(C(=O)NC(C)C)cc1 | 517 | 526 |
| O=C(C1CC1)N1CC[C@@H](Cn2c(-c3ccc(-c4ccc5occc5c4)cc3)nc3cnccc32)C1 | 505 | 486 |
| CCCCc1ccc(N[S+](=O)([O-])c2ccc(C)c(C(=O)N3CCN(c4cccc(C)c4C)CC3)c2)cc1 | 527 | 634 |
| CN[C@H]1CN(C[C@@H]1OC)C2=NC3=C(C=C2)C(=O)C(=C\N3C4=NC=CS4)/C(O)=O | 530 | 632 |
| CN(CCOc1ccc(-c2ccc3c(c2)OCO3)cc1C(C)(C)C)CC(=O)O | 498 | 486 |
| COc1cc(/C=C(\C#N)C(=O)Nc2nnc(C(F)(F)F)s2)ccc1OCc1ccc(C(F)(F)F)cc1C(F)(F)F | 450 | 488 |
| CC(C)(C)c1cc(C=C(C#N)C#N)cc(Br)c1O | 552 | 583 |
| Cn1cc(-c2ccncc2)c(-c2ccc(OCc3ccc4ccccc4n3)cc2)n1 | 495 | 597 |
| CCCCCCCCCCCCCC(=O)N[C@H](CO)[C@H](O)c1ccc([N+](=O)[O-])cc1 | 502 | 598 |
| CC(C)(c1ccc(OCC(O)CO)cc1)c1ccc(OCC(O)CCl)cc1 (centres undefined) | 384 | 301 |
